The record followed here is PMC12645191, “Dicarboxylate and dicarboxylic acid appended supramolecular self-associating amphiphiles as antimicrobial agents against high priority bacterial pathogens” (Organic & Biomolecular Chemistry, 2025).

One series concerns K. pneumoniae M6. Briefly: inhibition of bacterial growth, OD600 after 20 h. Type of series: cell-based, Klebsiella pneumoniae. Particulars: SSA 5.0 mM, 2.5% ethanol, negative = enhanced growth; for inhibition at 5000 µM: Klebsiella pneumoniae, M6, 20 h, read-out: Percentage inhibition of bacterial growth, M6 (K. pneumoniae).
Series [1] can be described thus: bi-directional permeability in Caco-2 cell line. In kind it is in vitro ADME, human. Particulars: human; for efflux ratio at 2 h / recovery at 2 h: Caco-2, pH 7.4, Caco-2; for Papp A→B at 2 h / Papp B→A at 2 h: Caco-2, pH 7.4, Caco-2, 5 or 10 µM, HBSS pH 7.4, 2 hours. As for the experimental part:
Metabolic stability was assessed in mouse and rat liver microsomes. Microsomes are subcellular fractions of hepatocytes and contain CYP450s, the predominant enzymes involved in first-pass metabolism.[66] […] A plasma protein binding assay was performed to assess the extent of compound binding to plasma proteins. This is key as only unbound compound is free to distribute and exert a pharmacological effect. […] To assess the potential for this sub-class of SSAs to be developed as drugs for oral administration, Caco-2 permeability assays were also performed, as a cellular model indicative of human intestinal permeability. […]
Sample analysis was by electrospray ionisation. […]
Bi-directional Permeability in Caco-2 Cell Line:
The bi-directional permeability in Caco-2 cell lines was determined by seeding cells onto an HTS Transwell plate. Cells were cultivated for 14-18 days in a cell culture incubator at 37 °C, 5 % CO2, 95 % relative humidity. Cell culture medium was replaced every other day. To assess monolayer integrity the transepithelial electrical resistance (TEER) across the monolayer was measured using Millicell Epithelial volt-ohm meter prior to assay and Lucifer yellow (LY) fluorescence measurement post-assay.
Test and control compounds were prepared in DMSO and diluted in Hank’s Balanced Saline […]
Solution (HBSS, pH 7.4) to a final concentration of 5 or 10 µM. Compound was added to the […]
donor compartment of the transwell plate for both apical to basolateral (A>B) and basolateral […]
to apical (B>A) measurements, with blank HBSS being added to the receiver compartment.
The transwell plate was then incubated at 37 °C, 5 % CO2 for 2 hours.
(In general: Caco-2 cells form a polarised layer with tight junctions and transporters.)

A short description of series [2]: kinetic solubility determination in PBS pH 7.4. Particulars: upper limit set at 300 µM; for solubility: PBS, pH 7.4, aqueous buffer, kinetic from dmso stock, Solubility in PBS pH 7.4, kinetic.

Values after ≈ are worked out from the molar mass of the structure shown. Values joined by “and” are separate entries in the source; they are usually repeats but may differ in a detail not shown here. Equal values may be shown once. Read-outs that look alike come from different tables or passages of the source.

Consider `O=C(O)CC[C@H](NC(=O)Nc1ccc(Br)cc1)C(=O)O` [SSA 9], for which the “Percentage inhibition of bacterial growth, M6 (K. pneumoniae)” value (“Percentage inhibition” for short) in the series on K. pneumoniae M6 (listed as 9) is 21.69% and 22%. In addition, in series [1], the efflux ratio (commonly the permeability from basolateral to apical divided by that in the opposite direction, in the common usage) at 2 h is 1.93; the Papp A→B (usually how fast a substance crosses the layer from the apical side) at 2 h worked out at 0.17 ×10⁻⁶ cm/s; the Papp B→A (usually how fast a substance crosses the layer from the basolateral side) at 2 h amounted to 0.32 ×10⁻⁶ cm/s. In addition, the recovery at 2 h in series [1] (read-out: Recovery (%) AP-BL) is 115%. Besides, in series [1] (read-out: Recovery (%) BL-AP), the recovery at 2 h amounted to 106%. The solubility (as a rule, how much of the substance goes into solution per volume) in series [2] worked out at 305 µM (≈ 105 µg/mL).

As for `O=C(O)CC[C@H](NC(=O)Nc1ccc(C(F)(F)F)cc1)C(=O)O` [SSA 1], in the series on K. pneumoniae M6, the inhibition (usually the relative decrease from the control value, in per cent) at 5000 µM is 26.2% and the “Percentage inhibition” value was determined as 26%. In series [1], the efflux ratio at 2 h is 1.23, the Papp A→B at 2 h was 0.19 ×10⁻⁶ cm/s and the Papp B→A at 2 h was found to be 0.23 ×10⁻⁶ cm/s. Also, the recovery at 2 h in series [1] (read-out: Recovery (%) AP-BL) stood at 107%. In series [1] (read-out: Recovery (%) BL-AP), the recovery at 2 h turned out to be 89.7%. The same compound had a solubility in series [2] of 303 µM (≈ 101 µg/mL).

`O=C(O)CC[C@H](NC(=O)Nc1ccc(C(F)(F)F)cc1)C(=O)O` [SSA 2]: the “Percentage inhibition” value in the series with K. pneumoniae M6 was 17.56% and 18%. The “Solubility in PBS pH 7.4” value in series [2] (kinetic) stood at 297.29 μM.

Turning to `O=C(O)CC[C@@H](NC(=O)Nc1ccc(C(F)(F)F)cc1)C(=O)O` [SSA 3], the inhibition at 5000 µM with K. pneumoniae M6 stood at 15.4%. In addition, in the series with K. pneumoniae M6 (listed as 3), the “Percentage inhibition” value is on record as 15%. Also, in series [1], the efflux ratio at 2 h was 2.31, the Papp A→B at 2 h stood at 0.1 ×10⁻⁶ cm/s and the Papp B→A at 2 h came to 0.24 ×10⁻⁶ cm/s. Further, the recovery at 2 h in series [1] (read-out: Recovery (%) AP-BL) turned out to be 103%. Also, in series [1] (read-out: Recovery (%) BL-AP), the recovery at 2 h came to 87.4%. The compound further returned a solubility in series [2] of 310 µM (≈ 104 µg/mL).
